Source: ChEMBL document CHEMBL1201862, “PubChem BioAssay data set” (2004)
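96-well plates; 48 h exposure; 5 concentrations. Endpoints by linear interpolation between flanking doses. Not reached: highest tested concentration assigned. GI50: concentration for 50% inhibition of growth.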 Calls of active or inactive are those of the source. Cut-off read from the data, not from the text of the source: active = GI50 up to about 1.1 µM and inactive = higher.

Assays:
Assay in all cases: DTP human tumour cell line panel, 48 h
EKVX = test system: EKVX
UACC-62 = test system: UACC-62
A549 = test system: A549
SK-MEL-5 = test system: SK-MEL-5
SF-268 = test system: SF-268
RXF 393 = test system: RXF 393
SK-MEL-2 = test system: SK-MEL-2
OVCAR-4 = test system: OVCAR-4
CCRF-CEM = test system: CCRF-CEM
OVCAR-8 = test system: OVCAR-8
TK-10 = test system: TK-10
DU-145 = test system: DU-145
UACC-257 = test system: UACC-257
SF-295 = test system: SF-295
SNB-75 = test system: SNB-75
PC-3 = test system: PC-3
MDA-MB-435 = test system: MDA-MB-435
M14 = test system: M14
KM12 = test system: KM12
NCI/ADR-RES = test system: NCI/ADR-RES
NCI-H460 = test system: NCI-H460
T47D = test system: T47D
HOP-92 = test system: HOP-92
NCI-H522 = test system: NCI-H522
786-0 = test system: 786-0
NCI-H226 = test system: NCI-H226
MDA-N = test system: MDA-N
SK-OV-3 = test system: SK-OV-3
K562 = test system: K562
HCT-15 = test system: HCT-15
SF-539 = test system: SF-539
UO-31 = test system: UO-31
ACHN = test system: ACHN
HCC 2998 = test system: HCC 2998
BT-549 = test system: BT-549
LOX IMVI = test system: LOX IMVI
CAKI-1 = test system: CAKI-1
MDA-MB-231 = test system: MDA-MB-231
IGROV-1 = test system: IGROV-1
MCF7 = test system: MCF7
MOLT-4 = test system: MOLT-4
A498 = test system: A498
Malme-3M = test system: Malme-3M
SW-620 = test system: SW-620
HOP-62 = test system: HOP-62
SR = test system: SR
Hs-578T = test system: Hs-578T
HT-29 = test system: HT-29
HL-60 = test system: HL-60
U-251 = test system: U-251
COLO 205 = test system: COLO 205
SN12C = test system: SN12C
NCI-H23 = test system: NCI-H23
SNB-19 = test system: SNB-19
OVCAR-3 = test system: OVCAR-3
HCT-116 = test system: HCT-116
OVCAR-5 = test system: OVCAR-5
RPMI-8226 = test system: RPMI-8226
SK-MEL-28 = test system: SK-MEL-28

`OC1(c2ccccc2)CSc2ncnn21` (stereo not drawn) was tested, and the GI50 (EKVX) was > 100 µM (inactive), the GI50 (UACC-62) was > 100 µM (inactive) and the GI50 (A549) was > 100 µM (inactive). The GI50 (SK-MEL-5) was > 100 µM (inactive), the GI50 (SF-268) was > 100 µM (inactive) and the GI50 (RXF 393) was > 100 µM (inactive). For the same molecule, the GI50 (SK-MEL-2) was > 100 µM (inactive), the GI50 (OVCAR-4) was > 100 µM (inactive) and the GI50 (CCRF-CEM) was > 100 µM (inactive). The GI50 (OVCAR-8) was > 100 µM (inactive), the GI50 (TK-10) was > 100 µM (inactive) and the GI50 (DU-145) was 41.1 µM (inactive). The GI50 (UACC-257) was > 100 µM (inactive), the GI50 (SF-295) was > 100 µM (inactive) and the GI50 (SNB-75) was > 100 µM (inactive). For the same molecule, the GI50 (PC-3) was > 100 µM (inactive), the GI50 (MDA-MB-435) was > 100 µM (inactive) and the GI50 (M14) was > 100 µM (inactive). The GI50 (KM12) was > 100 µM (inactive), the GI50 (NCI/ADR-RES) was > 100 µM (inactive) and the GI50 (NCI-H460) was > 100 µM (inactive). For the same molecule, the GI50 (T47D) was > 100 µM (inactive), the GI50 (HOP-92) was > 100 µM (inactive) and the GI50 (NCI-H522) was > 100 µM (inactive). For the same molecule, the GI50 (786-0) was > 100 µM (inactive), the GI50 (NCI-H226) was > 100 µM (inactive) and the GI50 (MDA-N) was > 100 µM (inactive). For the same molecule, the GI50 (SK-OV-3) was > 100 µM (inactive), the GI50 (K562) was > 100 µM (inactive) and the GI50 (HCT-15) was greater than 100 µM. For the same molecule, the GI50 (SF-539) was > 100 µM (inactive), the GI50 (UO-31) was > 100 µM (inactive) and the GI50 (ACHN) was > 100 µM (inactive). The GI50 (HCC 2998) was > 100 µM (inactive), the GI50 (BT-549) was > 100 µM (inactive) and the GI50 (LOX IMVI) was > 100 µM (inactive). For the same molecule, the GI50 (CAKI-1) was > 100 µM (inactive), the GI50 (MDA-MB-231) was > 100 µM (inactive) and the GI50 (IGROV-1) was > 100 µM (inactive). The GI50 (MCF7) was > 100 µM (inactive), the GI50 (MOLT-4) was > 100 µM (inactive) and the GI50 (A498) was > 100 µM (inactive). For the same molecule, the GI50 (Malme-3M) was > 100 µM (inactive), the GI50 (SW-620) was > 100 µM (inactive) and the GI50 (HOP-62) was > 100 µM (inactive). The GI50 (SR) was > 100 µM (inactive), the GI50 (Hs-578T) was > 100 µM (inactive) and the GI50 (HT-29) was > 100 µM (inactive). For the same molecule, the GI50 (HL-60) was > 100 µM (inactive), the GI50 (U-251) was > 100 µM (inactive) and the GI50 (COLO 205) was > 100 µM (inactive). For the same molecule, the GI50 (SN12C) was > 100 µM (inactive), the GI50 (NCI-H23) was > 100 µM (inactive) and the GI50 (SNB-19) was > 100 µM (inactive). For the same molecule, the GI50 (OVCAR-3) was > 100 µM (inactive) and the GI50 (HCT-116) was > 100 µM (inactive).
For `O=c1c2cccnc2n2n1Cc1ccccc1C2`, the GI50 (EKVX) was 71.3 µM (inactive), the GI50 (UACC-62) was > 100 µM (inactive) and the GI50 (A549) was > 100 µM (inactive). For the same molecule, the GI50 (SK-MEL-5) was > 100 µM (inactive), the GI50 (SF-268) was > 100 µM (inactive) and the GI50 (RXF 393) was > 100 µM (inactive). The GI50 (OVCAR-4) was > 100 µM (inactive), the GI50 (CCRF-CEM) was > 100 µM (inactive) and the GI50 (OVCAR-8) was > 100 µM (inactive). For the same molecule, the GI50 (TK-10) was > 100 µM (inactive), the GI50 (DU-145) was > 100 µM (inactive) and the GI50 (UACC-257) was > 100 µM (inactive). For the same molecule, the GI50 (SF-295) was > 100 µM (inactive), the GI50 (SNB-75) was > 100 µM (inactive) and the GI50 (PC-3) was > 100 µM (inactive). For the same molecule, the GI50 (MDA-MB-435) was > 100 µM (inactive), the GI50 (NCI/ADR-RES) was > 100 µM (inactive) and the GI50 (NCI-H460) was > 100 µM (inactive). For the same molecule, the GI50 (T47D) was > 100 µM (inactive), the GI50 (HOP-92) was > 100 µM (inactive) and the GI50 (NCI-H522) was > 100 µM (inactive). The GI50 (786-0) was > 100 µM (inactive), the GI50 (NCI-H226) was > 100 µM (inactive) and the GI50 (MDA-N) was > 100 µM (inactive). The GI50 (SK-OV-3) was > 100 µM (inactive), the GI50 (K562) was > 100 µM (inactive) and the GI50 (HCT-15) was greater than 100 µM. For the same molecule, the GI50 (SF-539) was > 100 µM (inactive), the GI50 (UO-31) was > 100 µM (inactive) and the GI50 (ACHN) was > 100 µM (inactive). The GI50 (HCC 2998) was > 100 µM (inactive), the GI50 (BT-549) was > 100 µM (inactive) and the GI50 (OVCAR-5) was > 100 µM (inactive). The GI50 (RPMI-8226) was > 100 µM (inactive), the GI50 (LOX IMVI) was > 100 µM (inactive) and the GI50 (CAKI-1) was > 100 µM (inactive). The GI50 (MDA-MB-231) was > 100 µM (inactive), the GI50 (IGROV-1) was > 100 µM (inactive) and the GI50 (MCF7) was > 100 µM (inactive). For the same molecule, the GI50 (MOLT-4) was > 100 µM (inactive), the GI50 (A498) was > 100 µM (inactive) and the GI50 (Malme-3M) was > 100 µM (inactive). The GI50 (SW-620) was > 100 µM (inactive), the GI50 (HOP-62) was > 100 µM (inactive) and the GI50 (SR) was > 100 µM (inactive). For the same molecule, the GI50 (Hs-578T) was > 100 µM (inactive), the GI50 (HT-29) was > 100 µM (inactive) and the GI50 (HL-60) was > 100 µM (inactive). The GI50 (U-251) was > 100 µM (inactive), the GI50 (SN12C) was > 100 µM (inactive) and the GI50 (NCI-H23) was > 100 µM (inactive). The GI50 (SK-MEL-28) was > 100 µM (inactive), the GI50 (OVCAR-3) was > 100 µM (inactive) and the GI50 (HCT-116) was > 100 µM (inactive).
In the case of `CC(=O)Oc1ccc2ccc(=O)oc2c1OC(C)=O`, the GI50 (EKVX) is reported as 67.8 µM (inactive), the GI50 (UACC-62) is reported as 43.9 µM (inactive) and the GI50 (A549) is reported as 30.1 µM (inactive). The GI50 (SK-MEL-5) was 27.2 µM (inactive), the GI50 (SF-268) was 27.8 µM (inactive) and the GI50 (RXF 393) was 22.7 µM (inactive). The GI50 (SK-MEL-2) was > 100 µM (inactive), the GI50 (OVCAR-4) was 35 µM (inactive) and the GI50 (CCRF-CEM) was 10.6 µM (inactive). The GI50 (OVCAR-8) was 35.4 µM (inactive), the GI50 (TK-10) was 78.2 µM (inactive) and the GI50 (DU-145) was > 100 µM (inactive). For the same molecule, the GI50 (UACC-257) was > 100 µM (inactive), the GI50 (SF-295) was 41.5 µM (inactive) and the GI50 (SNB-75) was 66.5 µM (inactive). The GI50 (PC-3) was 43 µM (inactive), the GI50 (MDA-MB-435) was 39.1 µM (inactive) and the GI50 (M14) was 78 µM (inactive). The GI50 (KM12) was 44.4 µM (inactive), the GI50 (NCI/ADR-RES) was 50.6 µM (inactive) and the GI50 (NCI-H460) was 14.9 µM (inactive). The GI50 (T47D) was 82.4 µM (inactive), the GI50 (HOP-92) was 64.3 µM (inactive) and the GI50 (NCI-H522) was 39.5 µM (inactive). The GI50 (786-0) was 42.1 µM (inactive), the GI50 (MDA-N) was 49.8 µM (inactive) and the GI50 (SK-OV-3) was 73.1 µM (inactive). The GI50 (K562) was 41.9 µM (inactive), the GI50 (HCT-15) was 11.6 µM and the GI50 (SF-539) was 43.4 µM (inactive). For the same molecule, the GI50 (UO-31) was 30.1 µM (inactive), the GI50 (ACHN) was 45.4 µM (inactive) and the GI50 (HCC 2998) was 48 µM (inactive). The GI50 (BT-549) was 40 µM (inactive), the GI50 (OVCAR-5) was > 100 µM (inactive) and the GI50 (RPMI-8226) was 28.4 µM (inactive). For the same molecule, the GI50 (LOX IMVI) was 21.3 µM (inactive), the GI50 (CAKI-1) was 43.6 µM (inactive) and the GI50 (MDA-MB-231) was 29.5 µM (inactive). For the same molecule, the GI50 (IGROV-1) was 57.1 µM (inactive), the GI50 (MCF7) was 46.3 µM (inactive) and the GI50 (MOLT-4) was 33.3 µM (inactive). For the same molecule, the GI50 (A498) was > 100 µM (inactive), the GI50 (Malme-3M) was > 100 µM (inactive) and the GI50 (SW-620) was 37.1 µM (inactive). The GI50 (HOP-62) was 29.5 µM (inactive), the GI50 (SR) was 28 µM (inactive) and the GI50 (Hs-578T) was 61.9 µM (inactive). For the same molecule, the GI50 (HT-29) was > 100 µM (inactive), the GI50 (HL-60) was 17.1 µM (inactive) and the GI50 (U-251) was 50.2 µM (inactive). The GI50 (COLO 205) was 24.4 µM (inactive), the GI50 (SN12C) was 19 µM (inactive) and the GI50 (NCI-H23) was 32 µM (inactive). The GI50 (SNB-19) was 32.6 µM (inactive), the GI50 (SK-MEL-28) was > 100 µM (inactive) and the GI50 (OVCAR-3) was 29.9 µM (inactive). For the same molecule, the GI50 (HCT-116) was 36.3 µM (inactive).
